These results are taken from US8637510B2, “Morpholinothiazoles as alpha 7 positive allosteric modulators” (Janssen Pharmaceutica NV, priority 2009, dated 2014).

Where a name gives a salt, the structure may show the parent alone.

For the test, the target named is T1, human alpha 7-wt nAChR (Homo sapiens, UniProt P36544).
T1 construct: expressed in transfected cells
The test is described as follows: Ca2+ flux imaging (FDSS) (Protocol B). The class given is cell-based. Particulars: for EC50: potentiation of 100 μM choline, compounds 0.01 μM to 30 μM, read-out: a7-PAM-G_[33]_pEC50 pEC50 (converted); for Emax: efficacy of 100 μM choline defined as 100% in the absence of a PAM, read-out: a7-PAM-G_[33]_Eff_Curve_FI % Efficacy. As for the experimental part:
Ca^2+ Flux Imaging (FDSS) (Protocol B)
• Hanks buffered saline solution (HBSS, Invitrogen, Belgium), supplemented with 10 mM HEPES (Invitrogen, Belgium), CaCl2 to a final concentration of 5 mM, 0.1% Bovine serum albumin (Sigma-Aldrich NV, Belgium). b) Calcium-Sensitive Dye—Fluo-4AM • Fluo-4AM (Molecular Probes, USA) was dissolved in DMSO containing 10% Pluronic acid (Molecular Probes, USA) to give a stock solution which was diluted in assay buffer supplemented with 5 mM probenicid (Sigma, Aldrich NV, Belgium) to give a final concentration of 2 μM. c) 384-Well Plates • Black-sided, transparent bottomed 384 well plates coated with poly-D-lysine, PDL pre-coated (Corning, Incorporated, USA) d) Calcium Flux Measurement • A Functional drug screening system (FDSS, Hamamatsu) was used to measure intracellular free-calcium flux signals. Method
Monolayers of human alpha 7-wt nAChR-expressing cells were grown in black-sided, transparent bottomed 384 well plates coated with PDL for 24 hours prior to loading with a fluorescent calcium indicator, fluo-4AM for up to 120 minutes.
PAM activity was detected in real time by applying the compounds to be tested to the loaded cells along with an alpha 7 nicotinic receptor agonist during constant monitoring of cellular fluorescence in a FDSS. Compounds giving peak fluorescent responses greater than the response due to agonist alone, were considered to be alpha 7 nAChR PAMs. The alpha 7 nicotinic receptor agonist was choline, applied at a sub-maximal concentration of 100 μM. In a further setting of the present invention the compounds were applied prior to the alpha 7 nicotinic receptor agonist, in a particular 10 minutes prior to the agonist.
A control response to choline was calculated on each plate from the difference in peak in fluorescence in wells receiving either choline or assay buffer alone. Compounds of the present invention were tested at a concentration range from 0.01 μM to 30 μM. Compounds were considered to have an interesting activity when they potentiated the choline signal at least with 200% when tested at a concentration of 30 μM (the efficacy of 100 μM choline was defined as 100% in the absence of a PAM). An EC50 (or pEC50) was determined as a concentration relating to half the maximal effect, when a clear sigmoidal curve with top plateau was obtained.

T1 sequence (P36544 23-502): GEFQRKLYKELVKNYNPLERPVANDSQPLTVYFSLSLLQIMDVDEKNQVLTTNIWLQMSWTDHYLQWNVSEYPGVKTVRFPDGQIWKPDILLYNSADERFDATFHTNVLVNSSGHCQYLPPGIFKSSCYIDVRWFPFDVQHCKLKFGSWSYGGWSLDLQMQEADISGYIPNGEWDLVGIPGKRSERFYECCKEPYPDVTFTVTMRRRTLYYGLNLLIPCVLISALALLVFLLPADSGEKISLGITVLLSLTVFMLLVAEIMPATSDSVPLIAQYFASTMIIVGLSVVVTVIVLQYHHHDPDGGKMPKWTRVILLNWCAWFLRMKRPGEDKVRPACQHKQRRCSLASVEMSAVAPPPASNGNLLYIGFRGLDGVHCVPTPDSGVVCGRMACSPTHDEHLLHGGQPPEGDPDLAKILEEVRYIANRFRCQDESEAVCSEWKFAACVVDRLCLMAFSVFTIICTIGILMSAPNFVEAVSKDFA

As for `Cc1cc(-c2sc(N3C[C@@H](C)O[C@@H](C)C3)nc2CNC(=O)c2cc(C(C)C)on2)cc(C)n1` [Compound 135, N-[[2-[(2R,6S)-2,6-dimethyl-4-morpholinyl]-5-(2,6-dimethyl-4-pyridinyl)-4-thiazolyl]methyl]-5-(1-methylethyl)-3-isoxazolecarboxamide], the EC50 was 537 nM.

Take `Cc1cc(-c2sc(N3C[C@@H](C)O[C@@H](C)C3)nc2CNC(=O)C(F)(F)F)cc(C)n1` [Compound 177, N-[[2-[(2R,6S)-2,6-dimethyl-4-morpholinyl]-5-(2,6-dimethyl-4-pyridinyl)-4-thiazolyl]methyl]-2,2,2-trifluoro-acetamide]: the Emax stood at 26%.

`CC(C)C(=O)NCc1nc(N2CCOCC2)sc1-c1ccncc1` [Compound 115, 2-methyl-N-[[2-(4-morpholinyl)-5-(4-pyridinyl)-4-thiazolyl]methyl]-propanamide]: the Emax amounted to 230% and the EC50 is 9330 nM.

Consider `CCCC(=O)NCc1nc(N2CC(C)OC(C)C2)sc1-c1cc(C)nc(C)c1` (racemic) [Compound 61, N-[[2-[2,6-dimethyl-4-morpholinyl]-5-(2,6-dimethyl-4-pyridinyl)-4-thiazolyl]methyl]-butanamide], for which the EC50 was 977 nM.

`Cc1cc(-c2sc(N3C[C@@H](C)O[C@@H](C)C3)nc2CNC(=O)c2cc(C)n(C(C)(C)C)n2)cc(C)n1` [Compound 139, 1-(1,1-dimethylethyl)-N-[[2-[(2R,6S)-2,6-dimethyl-4-morpholinyl]-5-(2,6-dimethyl-4-pyridinyl)-4-thiazolyl]methyl]-5-methyl-1H-pyrazole-3-carboxamide]: the Emax came out at 699% and the EC50 was 617 nM.

On to `Cc1cc(-c2sc(N3C[C@@H](C)O[C@@H](C)C3)nc2CNC(=O)c2ccoc2)cc(C)n1` [Compound 141, N-[[2-[(2R,6S)-2,6-dimethyl-4-morpholinyl]-5-(2,6-dimethyl-4-pyridinyl)-4-thiazolyl]methyl]-3-furancarboxamide], for which the Emax is 764% and the EC50 was 692 nM.

With `Cc1cc(-c2sc(N3C[C@@H](C)O[C@@H](C)C3)nc2CNC(=O)c2snnc2C)cc(C)n1` [Compound 155, N-[[2-[(2R,6S)-2,6-dimethyl-4-morpholinyl]-5-(2,6-dimethyl-4-pyridinyl)-4-thiazolyl]methyl]-4-methyl-1,2,3-thiadiazole-5-carboxamide], the EC50 is 75.9 nM.

Regarding `Cc1cc(-c2sc(N3C[C@@H](C)O[C@@H](C)C3)nc2CNC(=O)CC2CC2)cc(C2CC2)n1` [Compound 104, N-[[5-(2-cyclopropy1-6-methyl-4-pyridinyl)-2-[(2R,6S)-2,6-dimethyl-4-morpholinyl]-4-thiazolyl]methyl]-cyclopropaneacetamide], the Emax is 923% and the EC50 is 61.7 nM.

Turning to `Cc1cc(-c2sc(N3C[C@@H](C)O[C@@H](C)C3)nc2CNC(=O)c2cc(C3CC3)on2)cc(C)n1` [Compound 127, 5-cyclopropyl-N-[[2-[(2R,6S)-2,6-dimethyl-4-morpholinyl]-5-(2,6-dimethyl-4-pyridinyl)-4-thiazolyl]methyl]-3-isoxazolecarboxamide], the EC50 is 692 nM.

Take `Cc1cc(-c2sc(N3C[C@@H](C)O[C@@H](C)C3)nc2CNC(=O)c2cc(C)on2)cc(C2CC2)n1` [Compound 105, N-[[5-(2-cyclopropy1-6-methyl-4-pyridinyl)-2-[(2R,6S)-2,6-dimethyl-4-morpholinyl]-4-thiazolyl]methyl]-5-methyl-3-isoxazolecarboxamide]: the Emax is 895% and the EC50 is 288 nM.

With `Cc1cc(-c2sc(N3C[C@@H](C)O[C@@H](C)C3)nc2CNC(=O)c2cc(C)sc2C)cc(C)n1` [Compound 162, N-[[2-[(2R,6S)-2,6-dimethyl-4-morpholinyl]-5-(2,6-dimethyl-4-pyridinyl)-4-thiazolyl]methyl]-2,5-dimethyl-3-thiophenecarboxamide], the Emax came to 842% and the EC50 is 813 nM.

As for `Cc1cc(-c2sc(N3CCOCC3)nc2CNC(=O)c2conc2C)cc(C)n1` [Compound 62, N-[[5-(2,6-dimethyl-4-pyridinyl)-2-(4-morpholinyl)-4-thiazolyl]methyl]-3-methyl-4-isoxazolecarboxamide], the Emax amounted to 633% and the EC50 is 4270 nM.

For `Cc1cc(-c2sc(N3C[C@@H](C)O[C@@H](C)C3)nc2CNC(=O)c2ccn(C)n2)cc(C)n1` [Compound 142, N-[[2-[(2R,6S)-2,6-dimethyl-4-morpholinyl]-5-(2,6-dimethyl-4-pyridinyl)-4-thiazolyl]methyl]-1-methyl-1H-pyrazole-3-carboxamide], the Emax was 669%.

On to `Cc1cc(-c2sc(N3CCOC(C)(C)C3)nc2CNC(=O)c2conc2C)cc(C)n1` [Compound 182, N-[[2-(2,2-dimethyl-4-morpholinyl)-5-(2,6-dimethyl-4-pyridinyl)-4-thiazolyl]methyl]-3-methyl-4-isoxazolecarboxamide•HCl], for which the Emax worked out at 702% and the EC50 was 1450 nM.

On to `Cc1cc(-c2sc(N3C[C@@H](C)O[C@@H](C)C3)nc2CNC(=O)c2ccc(F)cc2C)cc(C2CC2)n1` [Compound 107, N-[[5-(2-cyclopropy1-6-methyl-4-pyridinyl)-2-[(2R,6S)-2,6-dimethyl-4-morpholinyl]-4-thiazolyl]methyl]-4-fluoro-2-methyl-benzamide], for which the Emax was 780% and the EC50 was 26.9 nM.

Regarding `Cc1cc(-c2sc(N3C[C@@H](C)O[C@@H](C)C3)nc2CNC(=O)C(C)C)cc(C2CC2)n1` [Compound 108, N-[[5-(2-cyclopropy1-6-methyl-4-pyridinyl)-2-[(2R,6S)-2,6-dimethyl-4-morpholinyl]-4-thiazolyl]methyl]-2-methyl-propanamide], the Emax came to 764% and the EC50 was 72.4 nM.

`Cc1cc(-c2sc(N3C[C@@H](C)O[C@@H](C)C3)nc2CNC(=O)C(C)(C)C)cc(C)n1` [Compound 47, N-[[2-[(2R,6S)-2,6-dimethyl-4-morpholinyl]-5-(2,6-dimethyl-4-pyridinyl)-4-thiazolyl]methyl]-2,2-dimethyl-propanamide]: the Emax is 247%.

Regarding `Cc1cc(-c2sc(N3C[C@@H](C)O[C@@H](C)C3)nc2CNC(=O)c2coc(C)n2)cc(C)n1` [Compound 31, N-[[2-[(2R,6S)-2,6-dimethyl-4-morpholinyl]-5-(2,6-dimethyl-4-pyridinyl)-4-thiazolyl]methyl]-2-methyl-4-oxazolecarboxamide], the Emax was 495%.

Take `Cc1cc(-c2sc(N3C[C@@H](C)O[C@@H](C)C3)nc2CNC(=O)c2ccc(F)c(C(F)(F)F)c2)cc(C)n1` [Compound 33, N-[[2-[(2R,6S)-2,6-dimethyl-4-morpholinyl]-5-(2,6-dimethyl-4-pyridinyl)-4-thiazolyl]methyl]-4-fluoro-3-(trifluoromethyl)-benzamide]: the Emax is 519% and the EC50 was 275 nM.

Regarding `Cc1cc(-c2sc(N3C[C@@H](C)O[C@@H](C)C3)nc2CNC(=O)C2CCC2)c(C)cn1` [Compound 95, N-[[2-[(2R,6S)-2,6-dimethyl-4-morpholinyl]-5-(2,5-dimethyl-4-pyridinyl)-4-thiazolyl]methyl]-cyclobutanecarboxamide], the Emax was found to be 299% and the EC50 is 2090 nM.

In the case of `Cc1cc(-c2sc(N3C[C@@H](C)O[C@@H](C)C3)nc2CNC(=O)c2cc(C(C)(C)C)nn2C)cc(C)n1` [Compound 54, 3-(1,1-dimethylethyl)-N-[[2-[(2R,6S)-2,6-dimethyl-4-morpholinyl]-5-(2,6-dimethyl-4-pyridinyl)-4-thiazolyl]methyl]-1-methyl-1H-pyrazole-5-carboxamide], the EC50 is 646 nM.

Regarding `Cc1cc(-c2sc(N3C[C@@H](C)O[C@@H](C)C3)nc2CNC(=O)c2ocnc2C)cc(C)n1` [Compound 152, N-[[2-[(2R,6S)-2,6-dimethyl-4-morpholinyl]-5-(2,6-dimethyl-4-pyridinyl)-4-thiazolyl]methyl]-4-methyl-5-oxazolecarboxamide], the EC50 is 6920 nM.

As for `Cc1cc(-c2sc(N3C[C@@H](C)O[C@@H](C(F)(F)F)C3)nc2CNC(=O)CC2CC2)cc(C)n1` [Compound 203, N-[[5-(2,6-dimethyl-4-pyridinyl)-2-[(2R,6R)-2-methyl-6-(trifluoromethyl)-4-morpholinyl]-4-thiazolyl]methyl]-cyclopropaneacetamide], the EC50 was 7.24 nM.
